Source: ChEMBL document CHEMBL5291721, “A preclinical secondary pharmacology resource illuminates target-adverse drug reaction associations of marketed drugs” (Nat Commun, 2023)

Tests used:
Progesterone receptor [1] = target: T1, Progesterone receptor (Homo sapiens, UniProt P06401)
T1 sequence (P06401 whole entry): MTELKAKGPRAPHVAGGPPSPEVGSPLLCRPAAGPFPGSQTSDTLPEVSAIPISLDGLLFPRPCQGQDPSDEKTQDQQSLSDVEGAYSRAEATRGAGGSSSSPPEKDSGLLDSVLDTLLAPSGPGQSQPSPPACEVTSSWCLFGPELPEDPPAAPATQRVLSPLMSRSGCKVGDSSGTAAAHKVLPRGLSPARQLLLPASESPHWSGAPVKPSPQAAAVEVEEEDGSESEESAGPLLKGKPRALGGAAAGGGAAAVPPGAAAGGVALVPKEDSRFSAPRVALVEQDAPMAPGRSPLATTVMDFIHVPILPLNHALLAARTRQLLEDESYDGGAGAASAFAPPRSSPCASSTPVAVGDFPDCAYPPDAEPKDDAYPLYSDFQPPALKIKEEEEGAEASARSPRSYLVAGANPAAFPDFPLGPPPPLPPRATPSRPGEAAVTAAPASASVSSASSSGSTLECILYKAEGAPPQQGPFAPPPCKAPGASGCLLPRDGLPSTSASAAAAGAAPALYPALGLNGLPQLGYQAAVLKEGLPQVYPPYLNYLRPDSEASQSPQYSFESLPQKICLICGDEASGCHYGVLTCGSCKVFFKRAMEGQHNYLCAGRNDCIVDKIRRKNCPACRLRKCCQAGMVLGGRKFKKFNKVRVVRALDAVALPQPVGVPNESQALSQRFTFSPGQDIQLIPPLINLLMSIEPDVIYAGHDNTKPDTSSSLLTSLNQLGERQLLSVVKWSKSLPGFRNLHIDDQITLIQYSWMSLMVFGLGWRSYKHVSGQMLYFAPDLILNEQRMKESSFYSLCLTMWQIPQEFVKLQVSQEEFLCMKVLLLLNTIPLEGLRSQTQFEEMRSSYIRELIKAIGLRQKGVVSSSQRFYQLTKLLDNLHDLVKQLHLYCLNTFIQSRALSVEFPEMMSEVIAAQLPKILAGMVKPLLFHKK

Vasopressin V1a receptor = Vasopressin V1a receptor (Homo sapiens, UniProt P37288)
Chain of Vasopressin V1a receptor (P37288 whole entry): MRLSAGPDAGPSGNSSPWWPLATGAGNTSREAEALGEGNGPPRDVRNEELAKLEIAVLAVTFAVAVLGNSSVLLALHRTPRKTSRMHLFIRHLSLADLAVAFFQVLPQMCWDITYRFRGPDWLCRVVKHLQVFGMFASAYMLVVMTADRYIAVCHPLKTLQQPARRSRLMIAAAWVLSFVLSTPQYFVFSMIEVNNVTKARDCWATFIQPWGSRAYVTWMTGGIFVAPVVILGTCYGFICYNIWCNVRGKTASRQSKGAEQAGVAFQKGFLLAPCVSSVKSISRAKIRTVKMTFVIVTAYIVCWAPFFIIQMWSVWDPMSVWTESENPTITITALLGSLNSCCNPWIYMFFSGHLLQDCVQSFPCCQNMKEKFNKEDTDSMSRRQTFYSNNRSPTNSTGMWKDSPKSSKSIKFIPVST

Progesterone receptor [2] = target: T1, Progesterone receptor; type: functional
[3] = target: Sodium-dependent noradrenaline transporter (Homo sapiens, UniProt P23975)
Chain of Sodium-dependent noradrenaline transporter (P23975 whole entry): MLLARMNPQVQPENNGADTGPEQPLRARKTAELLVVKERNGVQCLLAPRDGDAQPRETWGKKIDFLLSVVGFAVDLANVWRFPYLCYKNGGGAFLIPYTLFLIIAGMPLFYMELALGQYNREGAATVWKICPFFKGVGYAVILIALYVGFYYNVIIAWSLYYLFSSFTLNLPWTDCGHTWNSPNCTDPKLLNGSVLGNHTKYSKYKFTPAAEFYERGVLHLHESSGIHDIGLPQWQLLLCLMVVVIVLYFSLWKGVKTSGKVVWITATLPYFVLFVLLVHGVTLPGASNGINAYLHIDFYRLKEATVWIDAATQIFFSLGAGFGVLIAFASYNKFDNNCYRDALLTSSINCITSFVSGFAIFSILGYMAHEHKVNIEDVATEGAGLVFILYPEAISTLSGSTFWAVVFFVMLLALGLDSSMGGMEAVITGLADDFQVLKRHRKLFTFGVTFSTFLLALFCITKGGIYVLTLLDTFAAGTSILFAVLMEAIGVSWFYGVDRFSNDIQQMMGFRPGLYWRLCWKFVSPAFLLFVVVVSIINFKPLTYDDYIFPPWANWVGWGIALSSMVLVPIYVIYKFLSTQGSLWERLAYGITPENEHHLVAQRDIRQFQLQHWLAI

[4] = target: Voltage-dependent L-type calcium channel subunit alpha-1C (Rattus norvegicus, UniProt P22002); type: functional
Chain of Voltage-dependent L-type calcium channel subunit alpha-1C (P22002 whole entry): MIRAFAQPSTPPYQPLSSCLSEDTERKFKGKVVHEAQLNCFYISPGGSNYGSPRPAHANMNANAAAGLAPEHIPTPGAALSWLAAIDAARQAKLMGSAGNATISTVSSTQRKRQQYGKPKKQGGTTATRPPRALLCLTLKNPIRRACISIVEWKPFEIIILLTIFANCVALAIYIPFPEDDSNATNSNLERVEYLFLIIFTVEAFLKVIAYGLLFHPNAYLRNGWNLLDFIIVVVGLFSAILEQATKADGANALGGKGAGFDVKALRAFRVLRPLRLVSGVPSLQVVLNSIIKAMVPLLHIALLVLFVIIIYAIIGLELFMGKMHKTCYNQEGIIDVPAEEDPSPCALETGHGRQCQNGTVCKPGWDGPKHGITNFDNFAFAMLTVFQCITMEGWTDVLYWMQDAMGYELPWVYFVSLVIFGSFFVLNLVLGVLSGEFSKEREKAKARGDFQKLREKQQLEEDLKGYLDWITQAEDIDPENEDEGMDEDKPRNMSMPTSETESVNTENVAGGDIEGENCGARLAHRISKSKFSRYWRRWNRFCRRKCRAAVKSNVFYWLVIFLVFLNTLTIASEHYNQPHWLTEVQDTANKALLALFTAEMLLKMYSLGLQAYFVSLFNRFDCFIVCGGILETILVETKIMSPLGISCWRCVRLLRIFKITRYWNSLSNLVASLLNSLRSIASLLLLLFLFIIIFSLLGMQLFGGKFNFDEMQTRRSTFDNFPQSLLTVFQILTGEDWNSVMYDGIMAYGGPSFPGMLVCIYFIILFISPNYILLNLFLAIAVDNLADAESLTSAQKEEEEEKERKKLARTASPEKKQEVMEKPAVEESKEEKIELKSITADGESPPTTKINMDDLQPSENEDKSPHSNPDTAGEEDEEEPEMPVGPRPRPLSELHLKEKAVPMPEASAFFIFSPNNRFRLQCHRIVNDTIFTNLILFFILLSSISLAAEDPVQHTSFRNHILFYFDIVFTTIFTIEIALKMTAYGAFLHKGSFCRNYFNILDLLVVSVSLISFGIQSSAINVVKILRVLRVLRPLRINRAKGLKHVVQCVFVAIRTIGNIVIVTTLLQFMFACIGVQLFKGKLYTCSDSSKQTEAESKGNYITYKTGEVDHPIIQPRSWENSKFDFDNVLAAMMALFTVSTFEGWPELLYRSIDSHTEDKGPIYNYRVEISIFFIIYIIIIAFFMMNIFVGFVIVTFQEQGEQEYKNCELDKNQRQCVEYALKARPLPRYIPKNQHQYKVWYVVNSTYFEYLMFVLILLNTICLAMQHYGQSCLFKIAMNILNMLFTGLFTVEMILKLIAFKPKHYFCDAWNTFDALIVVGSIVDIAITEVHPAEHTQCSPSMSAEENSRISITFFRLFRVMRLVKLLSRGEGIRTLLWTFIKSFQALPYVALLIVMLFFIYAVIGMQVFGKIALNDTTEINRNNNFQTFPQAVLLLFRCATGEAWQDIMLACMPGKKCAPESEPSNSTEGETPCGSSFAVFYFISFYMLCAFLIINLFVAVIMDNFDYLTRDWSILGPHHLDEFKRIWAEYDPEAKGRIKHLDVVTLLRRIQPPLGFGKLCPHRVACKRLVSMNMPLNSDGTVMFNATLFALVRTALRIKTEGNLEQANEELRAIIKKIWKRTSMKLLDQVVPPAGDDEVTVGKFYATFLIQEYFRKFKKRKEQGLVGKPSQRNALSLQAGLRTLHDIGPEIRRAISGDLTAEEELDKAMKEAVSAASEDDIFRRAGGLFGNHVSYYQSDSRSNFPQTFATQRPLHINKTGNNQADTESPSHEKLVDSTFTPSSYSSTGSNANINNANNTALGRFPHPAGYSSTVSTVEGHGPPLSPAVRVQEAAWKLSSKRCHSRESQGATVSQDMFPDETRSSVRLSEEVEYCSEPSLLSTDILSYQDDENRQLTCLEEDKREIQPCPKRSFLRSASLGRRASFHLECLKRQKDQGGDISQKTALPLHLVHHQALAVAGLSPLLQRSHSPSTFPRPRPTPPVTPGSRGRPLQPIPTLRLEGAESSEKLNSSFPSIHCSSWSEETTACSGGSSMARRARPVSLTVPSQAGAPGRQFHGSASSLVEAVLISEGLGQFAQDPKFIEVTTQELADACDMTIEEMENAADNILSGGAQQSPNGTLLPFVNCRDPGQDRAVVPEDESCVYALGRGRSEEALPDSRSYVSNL

Adenosine receptor A1 = target: T2, Adenosine receptor A1 (Homo sapiens, UniProt P30542)
T2 sequence (P30542 whole entry): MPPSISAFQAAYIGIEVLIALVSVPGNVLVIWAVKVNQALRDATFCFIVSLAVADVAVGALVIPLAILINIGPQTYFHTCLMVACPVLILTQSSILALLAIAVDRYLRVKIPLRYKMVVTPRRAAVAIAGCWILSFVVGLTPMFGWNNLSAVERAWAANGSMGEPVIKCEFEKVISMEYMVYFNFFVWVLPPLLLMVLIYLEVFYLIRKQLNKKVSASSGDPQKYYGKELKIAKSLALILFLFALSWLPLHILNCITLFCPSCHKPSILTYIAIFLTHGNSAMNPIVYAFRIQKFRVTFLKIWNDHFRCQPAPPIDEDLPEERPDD

[5] = target: T3, Alpha-2B adrenergic receptor (Homo sapiens, UniProt P18089)
T3 sequence (P18089 whole entry): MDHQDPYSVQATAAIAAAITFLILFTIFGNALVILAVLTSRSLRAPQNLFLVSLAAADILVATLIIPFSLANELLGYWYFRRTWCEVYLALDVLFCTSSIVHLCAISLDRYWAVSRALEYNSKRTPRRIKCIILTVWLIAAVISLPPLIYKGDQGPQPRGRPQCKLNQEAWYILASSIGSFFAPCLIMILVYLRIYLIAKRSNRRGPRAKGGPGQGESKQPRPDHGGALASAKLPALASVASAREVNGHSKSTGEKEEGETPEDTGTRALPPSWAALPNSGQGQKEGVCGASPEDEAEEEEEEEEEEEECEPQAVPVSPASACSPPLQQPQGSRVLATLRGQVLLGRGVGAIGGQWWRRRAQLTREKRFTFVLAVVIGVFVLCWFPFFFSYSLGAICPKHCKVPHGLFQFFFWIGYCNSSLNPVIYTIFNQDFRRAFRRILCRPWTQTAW

[6] = target: Gamma-aminobutyric acid receptor subunit alpha-1 (Rattus norvegicus, UniProt P62813); type: functional
Chain of Gamma-aminobutyric acid receptor subunit alpha-1 (P62813 whole entry): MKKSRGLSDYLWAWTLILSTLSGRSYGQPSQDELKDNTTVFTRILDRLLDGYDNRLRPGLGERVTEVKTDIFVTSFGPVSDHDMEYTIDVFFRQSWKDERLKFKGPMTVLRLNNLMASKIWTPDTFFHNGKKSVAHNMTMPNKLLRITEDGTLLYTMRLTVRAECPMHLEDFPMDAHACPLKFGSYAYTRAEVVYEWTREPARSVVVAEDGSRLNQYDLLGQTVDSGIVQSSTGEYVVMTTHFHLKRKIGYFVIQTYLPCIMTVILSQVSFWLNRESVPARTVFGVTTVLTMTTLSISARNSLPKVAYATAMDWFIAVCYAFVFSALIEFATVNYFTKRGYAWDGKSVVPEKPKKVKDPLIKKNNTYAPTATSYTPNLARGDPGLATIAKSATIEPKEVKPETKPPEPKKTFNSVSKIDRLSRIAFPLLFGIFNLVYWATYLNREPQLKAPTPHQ

Cannabinoid receptor 1 = Cannabinoid receptor 1 (Homo sapiens, UniProt P21554); type: functional, cell-based
Chain of Cannabinoid receptor 1 (P21554 whole entry): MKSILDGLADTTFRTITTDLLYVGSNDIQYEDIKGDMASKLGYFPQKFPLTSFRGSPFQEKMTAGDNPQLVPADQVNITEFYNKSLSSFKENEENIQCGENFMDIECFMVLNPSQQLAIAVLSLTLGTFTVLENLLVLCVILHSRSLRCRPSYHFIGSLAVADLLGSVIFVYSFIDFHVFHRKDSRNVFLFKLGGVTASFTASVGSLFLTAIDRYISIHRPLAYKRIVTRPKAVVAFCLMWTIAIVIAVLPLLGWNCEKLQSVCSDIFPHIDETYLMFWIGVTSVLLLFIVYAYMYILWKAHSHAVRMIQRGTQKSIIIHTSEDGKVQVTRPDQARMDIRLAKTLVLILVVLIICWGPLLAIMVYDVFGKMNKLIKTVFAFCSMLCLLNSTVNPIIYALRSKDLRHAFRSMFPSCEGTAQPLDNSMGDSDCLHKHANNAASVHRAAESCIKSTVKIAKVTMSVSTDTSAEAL

[7] = target: T4, Type-1 angiotensin II receptor (Homo sapiens, UniProt P30556)
T4 sequence (P30556 whole entry): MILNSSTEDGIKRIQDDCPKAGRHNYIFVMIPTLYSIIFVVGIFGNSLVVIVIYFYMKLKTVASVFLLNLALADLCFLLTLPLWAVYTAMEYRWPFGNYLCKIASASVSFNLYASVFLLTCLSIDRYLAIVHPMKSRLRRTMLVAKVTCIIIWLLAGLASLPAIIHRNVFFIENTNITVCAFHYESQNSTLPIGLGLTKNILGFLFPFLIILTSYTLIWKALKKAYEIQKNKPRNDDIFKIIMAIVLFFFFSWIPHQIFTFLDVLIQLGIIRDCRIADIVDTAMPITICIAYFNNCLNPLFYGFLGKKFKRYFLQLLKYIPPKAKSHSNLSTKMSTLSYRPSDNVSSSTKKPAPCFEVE

Vasopressin V2 receptor = Vasopressin V2 receptor (Homo sapiens, UniProt P30518)
Chain of Vasopressin V2 receptor (P30518 whole entry): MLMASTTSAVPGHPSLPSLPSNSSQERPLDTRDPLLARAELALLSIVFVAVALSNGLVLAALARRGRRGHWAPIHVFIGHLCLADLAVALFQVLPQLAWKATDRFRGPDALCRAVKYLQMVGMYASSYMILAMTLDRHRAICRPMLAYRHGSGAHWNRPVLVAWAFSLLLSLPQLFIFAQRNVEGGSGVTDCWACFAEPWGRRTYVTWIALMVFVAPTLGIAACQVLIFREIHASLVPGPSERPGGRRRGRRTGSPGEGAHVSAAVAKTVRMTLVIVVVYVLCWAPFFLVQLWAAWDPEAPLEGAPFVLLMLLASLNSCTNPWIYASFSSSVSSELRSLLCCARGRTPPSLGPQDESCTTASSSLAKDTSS

Progesterone receptor [8] = target: T1, Progesterone receptor; type: functional; remark: listed apart in the source
[9] = target: T5, 5-hydroxytryptamine receptor 1A (Homo sapiens, UniProt P08908); type: functional, cell-based
T5 sequence (P08908 whole entry): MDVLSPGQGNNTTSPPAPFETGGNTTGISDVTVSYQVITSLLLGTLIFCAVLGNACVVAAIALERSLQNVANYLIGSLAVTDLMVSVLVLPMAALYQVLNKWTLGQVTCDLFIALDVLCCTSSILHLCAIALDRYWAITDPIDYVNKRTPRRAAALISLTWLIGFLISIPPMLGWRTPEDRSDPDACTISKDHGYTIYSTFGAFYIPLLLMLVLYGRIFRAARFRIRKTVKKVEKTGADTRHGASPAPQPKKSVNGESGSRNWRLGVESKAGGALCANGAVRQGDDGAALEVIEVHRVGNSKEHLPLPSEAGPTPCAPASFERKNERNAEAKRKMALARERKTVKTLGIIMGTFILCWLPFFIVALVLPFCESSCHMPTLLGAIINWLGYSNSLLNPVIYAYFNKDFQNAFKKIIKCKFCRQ
Note: assay procedure not described here.

SMILES: CCC[C@H](N[C@@H](C)C(=O)N1[C@H](C(=O)O)C[C@@H]2CCCC[C@@H]21)C(=O)OCC [PERINDOPRIL]
- AC50 (Progesterone receptor [1]): > 30 µM

SMILES: NNCCc1ccccc1 [PHENELZINE]
- AC50 (Progesterone receptor [1]): > 30 µM

SMILES: N[C@@H](Cc1ccccc1)C(=O)O [PHENYLALANINE]
- AC50 (Progesterone receptor [1]): > 30 µM

SMILES: Cc1cccc(C)c1NC(=O)CC12CCCN1CCC2 [PILSICAINIDE]
- AC50 (Vasopressin V1a receptor): > 30 µM
- AC50 (Progesterone receptor [2]): > 30 µM
- AC50 [3]: > 30 µM
- AC50 [4]: > 30 µM
- AC50 (Adenosine receptor A1): > 30 µM
- AC50 [5]: > 30 µM
- AC50 [6]: > 30 µM
- AC50 (Cannabinoid receptor 1): > 30 µM
- AC50 [7]: > 30 µM
- AC50 (Vasopressin V2 receptor): > 30 µM
- AC50 (Progesterone receptor [8]): > 30 µM

SMILES: CCCn1cnc2c1c(=O)n(CCCCC(C)=O)c(=O)n2C [PROPENTOFYLLINE]
- AC50 (Progesterone receptor [1]): > 30 µM

SMILES: CCCN1CC(NS(=O)(=O)N(CC)CC)CC2Cc3c(O)cccc3CC21 (stereo not given) [QUINAGOLIDE]
- AC50 (Vasopressin V1a receptor): > 30 µM
- AC50 (Progesterone receptor [2]): > 30 µM
- AC50 [3]: 21 µM
- AC50 [4]: > 30 µM
- AC50 (Adenosine receptor A1): > 30 µM
- AC50 [5]: 11 µM
- AC50 [6]: > 30 µM
- AC50 (Cannabinoid receptor 1): > 30 µM
- AC50 [7]: > 30 µM
- AC50 (Vasopressin V2 receptor): > 30 µM
- AC50 (Progesterone receptor [8]): > 30 µM

SMILES: COC(=O)[C@H]1[C@H]2C[C@@H]3c4[nH]c5cc(OC)ccc5c4CCN3C[C@H]2C[C@@H](OC(=O)c2cc(OC)c(OC)c(OC)c2)[C@@H]1OC [RESERPINE]
- AC50 [9]: > 10 µM
- AC50 (Vasopressin V1a receptor): > 10 µM
- AC50 (Progesterone receptor [2]): > 10 µM
- AC50 [3]: > 30 µM
- AC50 [4]: 8.83 µM
- AC50 (Adenosine receptor A1): > 30 µM
- AC50 [6]: > 10 µM
- AC50 [7]: > 10 µM
- AC50 (Vasopressin V2 receptor): > 10 µM
- AC50 (Progesterone receptor [8]): > 10 µM
- AC50 (Progesterone receptor [1]): > 30 µM

SMILES: Clc1ccc(C(Cn2ccnc2)OCc2csc3c(Cl)cccc23)c(Cl)c1 (stereo not given) [SERTACONAZOLE]
- AC50 (Progesterone receptor [1]): 0.831 µM

SMILES: CC(OCCN1CCCCCC1)(c1ccccc1)c1ccc(Cl)cc1 (stereo not given) [SETASTINE]
- AC50 (Progesterone receptor [1]): > 30 µM

SMILES: COc1cc(C)c2c(Oc3cccc(C(F)(F)F)c3)c(OC)cc(NC(C)CCCN)c2n1 (stereo not given) [TAFENOQUINE]
- AC50 (Progesterone receptor [1]): 4.23 µM

SMILES: CCCSc1nc(N[C@@H]2C[C@H]2c2ccc(F)c(F)c2)c2nnn([C@@H]3C[C@H](OCCO)[C@@H](O)[C@H]3O)c2n1 [TICAGRELOR]
- AC50 (Progesterone receptor [1]): 7.6 µM

SMILES: c1ccc2c(SC3=NCCN3)c[nH]c2c1 [TINAZOLINE]
- AC50 (Progesterone receptor [1]): 24 µM

SMILES: Cc1ccc(C(=O)C(C)CN2CCCCC2)cc1 (stereo not given) [TOLPERISONE]
- AC50 (Progesterone receptor [1]): > 30 µM

SMILES: COc1ccc2c(C(=S)N(C)CC(=O)O)cccc2c1C(F)(F)F [TOLRESTAT]
- AC50 (Progesterone receptor [1]): > 30 µM

SMILES: CCOC(=O)c1c(CSc2ccccc2)n(C)c2cc(Br)c(O)c(CN(C)C)c12 [UMIFENOVIR]
- AC50 (Vasopressin V1a receptor): > 30 µM
- AC50 (Progesterone receptor [2]): > 30 µM
- AC50 [3]: 21 µM
- AC50 [4]: > 30 µM
- AC50 (Adenosine receptor A1): > 30 µM
- AC50 [5]: 26 µM
- AC50 [6]: > 30 µM
- AC50 (Cannabinoid receptor 1): > 30 µM
- AC50 [7]: > 30 µM
- AC50 (Vasopressin V2 receptor): > 30 µM
- AC50 (Progesterone receptor [8]): > 30 µM
